This is an account of results in ChEMBL document CHEMBL5390263, “Direct evaluation of polarity of the ligand binding pocket in retinoid X receptor using a fluorescent solvatochromic agonist” (Bioorg Med Chem Lett, 2023).

Active and inactive are the calls of the source. The calls are words filed in the database; no cut-off is given here.

The target of assay [1] is T1, Retinoic acid receptor RXR-alpha (Homo sapiens, UniProt P19793).
T1 sequence (P19793 whole entry): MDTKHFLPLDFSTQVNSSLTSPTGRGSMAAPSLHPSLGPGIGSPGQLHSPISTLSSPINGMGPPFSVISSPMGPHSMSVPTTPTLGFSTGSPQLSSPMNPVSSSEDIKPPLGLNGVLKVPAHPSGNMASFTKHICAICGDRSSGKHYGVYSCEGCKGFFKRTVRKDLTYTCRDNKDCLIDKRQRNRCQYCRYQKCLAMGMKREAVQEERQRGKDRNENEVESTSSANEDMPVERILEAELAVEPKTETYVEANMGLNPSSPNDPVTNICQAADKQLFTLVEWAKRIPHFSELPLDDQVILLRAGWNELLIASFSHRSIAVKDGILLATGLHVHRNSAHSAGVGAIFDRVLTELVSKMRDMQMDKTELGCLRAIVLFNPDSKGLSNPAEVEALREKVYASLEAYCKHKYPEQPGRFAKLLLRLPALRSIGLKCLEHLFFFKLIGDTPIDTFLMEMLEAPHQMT
Kind of assay: Binding affinity to RXRalpha-LBP (unknown origin) assessed as dissociation constant by FRET assay.

Assay [2] has as its target T2, Retinoic acid receptor RXR-alpha (Homo sapiens) (UniProt P19793).
T2 sequence (whole entry): T1 sequence (P19793 whole entry)
Put plainly: Binding affinity to RXRalpha-LBD (unknown origin) assessed as increase in fluorescence intensity by measuring maximum excitation of 440 nm wavelength at 16 uM by FRET assay. The conditions noted are these: filed as agonist.

Assay [3] deals with T2, Retinoic acid receptor RXR-alpha (Homo sapiens). Kind of assay: Binding affinity to RXR alpha-LBD (unknown origin) assessed as increase in fluorescence intensity up to 16 uM by FRET assay. The conditions noted are these: filed as agonist.
Assay [4] shares this target. Put plainly: Binding affinity to RXRalpha-LBD (unknown origin) assessed as fluorescence intensity by measuring maximum excitation wavelength from 382 to 440 nm at 5 to 20 uM in the presence of bexarotene by FRET assay. The conditions noted are these: dose 5-20 µM.
Assay [5] shares this target. Put plainly: Binding affinity to RXRalpha-LBD (unknown origin) assessed as increase in fluorescence intensity by measuring maximum excitation wavelength from 382 to 440 nm by FRET assay. The conditions noted are these: filed as agonist, dose <= 16.0 µM.
In assay [6] the target is T1, Retinoic acid receptor RXR-alpha. Put plainly: Binding affinity to RXRalpha-LBD (unknown origin) assessed as dissociation constant by FRET assay.

For `CCN(c1ccc2c(C(F)(F)F)cc(=O)n(CC(C)C)c2c1)c1ccc(C(=O)O)cn1`, the Kd in assay [1] amounted to 10.9 µM; in assay [6], 6.3 µM. Further, the outcome in assay [2] and in assay [3] was Active. In addition, in assay [4], the outcome was inactive. In assay [5], the Activity entry is “Dose-Dependent Effect”.
